Results: patent EP1655284A1, “2-Phenylsulfopyrroles” (Aponetics AG, priority 2004, dated 2006)

Experiments:
[1] = test system: H460; assay: Hoechst 33342 nuclear staining; type: cell-based, human; parameters: key: 0: no activity; 1: weak activity comprising less than 50% of the cells; 2: strong activity comprising more than 50% of the cells; conditions: 48 hour read-out
Protocol: (§1) This assay is performed in 96 well tissue culture plates. Appropriate number of cells (adherent cells: 3 - 5*10^3, suspension cells: 8 - 10*10^3) are being seeded out in 80 µl complete medium. Adherent cells are incubated for 24 h for proper spreading out before addition of test compounds while suspension cells are immediately treated with test compounds after seeding out. The test compounds are added in 20 µl complete medium containing max 5% DMSO. […] After 24 h or 48 h incubation at culture conditions, 10 µl medium containing Hoechst 33342 dye (Sigma B-2261) at 2-5 µg/ml are added to each well. The assay plates are then further incubated for 30 minutes and subsequently analyzed with a standard inverted fluorescence microscope.
(§2) The readout allows the determination of the fraction of apoptotic nuclei as well as other morphological criteria specific for apoptosis as a function of the treatment. Table 2: Hoechst 33342 nuclear staining (48 hour read-out)

[2] = test system: HeLa; assay: Hoechst 33342 nuclear staining; type: cell-based, human; parameters: key: 0: no activity; 1: weak activity comprising less than 50% of the cells; 2: strong activity comprising more than 50% of the cells; conditions: 48 hour read-out
Protocol: as §1, §2

[3] = test system: Jurkat; assay: Hoechst 33342 nuclear staining; type: cell-based, human; parameters: key: 0: no activity; 1: weak activity comprising less than 50% of the cells; 2: strong activity comprising more than 50% of the cells; conditions: 48 hour read-out
Protocol: as §1, §2

[4] = test system: Jily; assay: Hoechst 33342 nuclear staining; type: cell-based; parameters: key: 0: no activity; 1: weak activity comprising less than 50% of the cells; 2: strong activity comprising more than 50% of the cells; conditions: 48 hour read-out
Protocol: as §1, §2

[5] = test system: PBL; assay: Hoechst 33342 nuclear staining; type: cell-based; parameters: key: 0: no activity; 1: weak activity comprising less than 50% of the cells; 2: strong activity comprising more than 50% of the cells; conditions: 48 hour read-out
Protocol: as §1, §2

[6] = test system: H460; assay: MTS proliferation assay; type: cell-based; conditions: Homo sapiens, NCI-H460; H460, 72 h incubation
Protocol: (§3) The assay is performed in 96 well tissue culture plates. The cells (range : 1.5*10^3 - 10^4) are seeded out in 80 µl complete medium 24 h prior to compound treatment. The test compounds are added in 20 µl complete medium containing max 5% DMSO. The final compound concentrations in the assays are 10 µM, 3 µM, 1 µM and 0.3 µM, respectively. The assay plates are incubated for 72 h at culture conditions. The MTS reagent is prepared according to the manufacturer's protocol (Promega G1111). 20 µl MTS reagent are added to each well, the assay plates are quickly spun and incubated for another 3 h at culture conditions. Subsequently, the plates are shortly shaked and absorption measured with a microplate-reader at 492 nm. Table 3: MTS proliferation assay

[7] = test system: HeLa; assay: MTS proliferation assay; type: cell-based; conditions: Homo sapiens, 72 h incubation
Protocol: as §3

[8] = test system: Jily; assay: MTS proliferation assay; type: cell-based; conditions: 72 h incubation
Protocol: as §3

[9] = test system: Jurkat; assay: MTS proliferation assay; type: cell-based; conditions: Homo sapiens, 72 h incubation
Protocol: as §3

[10] = test system: MRC5; assay: MTS proliferation assay; type: cell-based; conditions: Homo sapiens; MRC5, 72 h incubation
Protocol: as §3

Row | Compound | Hoechst 33342 nuclear staining score (fraction of apoptotic nuclei) ([1]; H460, 0.01µM) | Hoechst 33342 nuclear staining score (fraction of apoptotic nuclei) ([1]; H460, 0.1µM) | Hoechst 33342 nuclear staining score (fraction of apoptotic nuclei) ([1]; H460, 1µM) | Hoechst 33342 nuclear staining score (fraction of apoptotic nuclei) ([2]; 0.01µM) | Hoechst 33342 nuclear staining score (fraction of apoptotic nuclei) ([2]; 0.1µM) | Hoechst 33342 nuclear staining score (fraction of apoptotic nuclei) ([2]; 1µM) | Hoechst 33342 nuclear staining score (fraction of apoptotic nuclei) ([3]; 0.01µM) | Hoechst 33342 nuclear staining score (fraction of apoptotic nuclei) ([3]; 0.1µM) | Hoechst 33342 nuclear staining score (fraction of apoptotic nuclei) ([3]; 1µM) | Hoechst 33342 nuclear staining score (fraction of apoptotic nuclei) ([4]; 0.01µM) | Hoechst 33342 nuclear staining score (fraction of apoptotic nuclei) ([4]; 0.1µM) | Hoechst 33342 nuclear staining score (fraction of apoptotic nuclei) ([4]; 1µM) | Hoechst 33342 nuclear staining score (fraction of apoptotic nuclei) ([5]; 0.01µM) | Hoechst 33342 nuclear staining score (fraction of apoptotic nuclei) ([5]; 0.1µM) | Hoechst 33342 nuclear staining score (fraction of apoptotic nuclei) ([5]; 1µM) | IC50 [6] [µM] | IC50 [7] [µM] | IC50 [8] [µM] | IC50 [9] [µM] | IC50 [10] [µM]
1 | COc1ccc(S(=O)(=O)n2cc(Br)cc2-c2cc(OC)c(OC)c(OC)c2)cc1 [Example 1, 4-Bromo-1-p-methoxyphenylsulfonyl-2-(3,4,5-trimethoxyphenyl)-pyrrole] | 0 | 2 (strong activity comprising more than 50% of the cells.) | 2 (strong activity comprising more than 50% of the cells.) | 0 | 0 | 2 (strong activity comprising more than 50% of the cells.) | 0 | 2 (strong activity comprising more than 50% of the cells.) | 2 (strong activity comprising more than 50% of the cells.) | 0 | 2 (strong activity comprising more than 50% of the cells.) | 2 (strong activity comprising more than 50% of the cells.) | 0 | 0 | 0 | 0.1 to 1 | 0.1 to 1 | 0.1 to 1 | < 0.1 | 0.1 to 1
2 | COc1ccc(S(=O)(=O)n2cc(C(=O)Nc3ccc(N4CCOCC4)cc3)cc2-c2cc(OC)c(OC)c(OC)c2)cc1 [Example 3, N-p-morpholinophenyl-1-p-methoxyphenylsulfonyl-2-(3,4,5-trimethoxyphenyl)-Pyrrole-4-carboxamide] | 0 | 2 (strong activity comprising more than 50% of the cells.) | 2 (strong activity comprising more than 50% of the cells.) | 0 | 2 (strong activity comprising more than 50% of the cells.) | 2 (strong activity comprising more than 50% of the cells.) | 2 (strong activity comprising more than 50% of the cells.) | 2 (strong activity comprising more than 50% of the cells.) | 2 (strong activity comprising more than 50% of the cells.) | 2 (strong activity comprising more than 50% of the cells.) | 2 (strong activity comprising more than 50% of the cells.) | 2 (strong activity comprising more than 50% of the cells.) | 0 | 0 | 0 | < 0.1 | < 0.1 | < 0.1 | < 0.1 | < 0.1
3 | COc1ccc(S(=O)(=O)n2cccc2-c2cc(OC)c(OC)c(OC)c2)cc1 [Example 2, 1-p-methoxyphenylsulfonyl-2-(3,4,5-trimethoxyphenyl)-pyrrole] | 0 | 2 (strong activity comprising more than 50% of the cells.) | 2 (strong activity comprising more than 50% of the cells.) | 0 | 2 (strong activity comprising more than 50% of the cells.) | 2 (strong activity comprising more than 50% of the cells.) | 0 | 2 (strong activity comprising more than 50% of the cells.) | 2 (strong activity comprising more than 50% of the cells.) | 0 | 2 (strong activity comprising more than 50% of the cells.) | 2 (strong activity comprising more than 50% of the cells.) | 0 | 0 | 0 | < 0.1 | 0.1 to 1 | < 0.1 | < 0.1 | < 0.1
